From patent publication US11013235B2 (priority 2015, dated 2021)
Read-outs that look alike come from different tables or passages of the source.

Experiments:
Assay type in all cases: in vivo
Botrytis cinerea [1] = assay: Control of Botrytis cinerea disease in tomato (Bc-SI); details: 1 μM spraying every 24 hours for one week, water control 7.4
Experimental: (§1) In order to compare the effect of the compounds of formula I to V on the control of diseases in different plants, experiments were conducted in tobacco, tomato and Arabidopsis thaliana plants inoculated with Phytophthora parasitica, Rhizoctonia solani, Alternaria solani, Nocardia sp and Botrytis cinerea, respectively. The compounds were applied by spraying, at a concentration of 1 μM, every 24 hours for one week. The plant mortality rate was determined for the disease produced by Phytophthora parasitica, Rhizoctonia solani and Nocardia sp, while the percentage of leaves with symptoms was determined for the infection by Alternaria solani. In the case of plants affected by Botrytis cinerea, the lesion diameter was measured. […] Each treatment included fifty plants. As control, plants treated with water were studied. The plants of each treatment were previously inoculated with the indicated pathogens, according to different inoculation protocols (Frontiers in Plant Science 3: 268, 1-6, 2012), and later they were treated with the compounds.

Alternaria solani = assay: Control of Alternaria solani disease in tomato (As-SI); details: 1 μM spraying every 24 hours for one week, water control 68
Experimental: as §1

[2] = system: Candidatus 'Liberibacter asiaticus'; details: spraying every 15 days, 12 months after treatment, Citrus sinensis with HLB
Botrytis cinerea [3] = assay: Control of Botrytis cinerea disease in tobacco (Bc-Nt); details: 1 μM spraying every 24 hours for one week, water control 6.7
Experimental: as §1

Meloidogyne incognita = assay: Nematode control, nodules per plant: Meloidogyne incognita; details: 1 μM foliar application every 5 days, evaluation 35 days after, control 34
Experimental: (§2) The solutions of the compounds were prepared in ethanol and diluted in water, up to a concentration of 1 μM for a foliar application. Applications were conducted every 5 days, spraying only the leafs with each compound. Ten plants were used for each treatment and the final evaluation was performed 35 days after, by quantifying the number of nodules per plant.

Rhizoctonia solani [4] = assay: Control of Rhizoctonia solani disease in tomato (Rs-SI); details: 1 μM spraying every 24 hours for one week, water control 96
Experimental: as §1

Phytophthora parasitica = assay: Control of Phytophthora parasitica disease in tobacco (Pp-Nt); details: 1 μM spraying every 24 hours for one week, water control 91
Experimental: as §1

Pratylenchus coffeae = assay: Nematode control, nodules per plant: Pratylenchus coffeae; details: 1 μM foliar application every 5 days, evaluation 35 days after, control 42
Experimental: as §2

Rhizoctonia solani [5] = assay: Control of Rhizoctonia solani disease in tobacco (Rs-Nt); details: 1 μM spraying every 24 hours for one week, water control 87
Experimental: as §1

Nocardia sp = assay: Control of Nocardia sp disease in tobacco (N-Nt); details: 1 μM spraying every 24 hours for one week, water control 58
Experimental: as §1

Radopholus similis = assay: Nematode control, nodules per plant: Radopholus similis; details: 1 μM foliar application every 5 days, evaluation 35 days after, control 45
Experimental: as §2

Botrytis cinerea [6] = assay: Control of Botrytis cinerea disease in Arabidopsis (Bc-At); details: 1 μM spraying every 24 hours for one week, water control 8.7
Experimental: as §1

Row | Compound | Bc-SI: mean of the diameter of the lesion (Botrytis cinerea [1]) | As-SI: percentage of leaves with the disease symptoms (Alternaria solani) | Titers of the bacterium ([2]; 0.001 μM) | Titers of the bacterium ([2]; 0.01 μM) | Titers of the bacterium ([2]; 1 μM) | Titers of the bacterium ([2]; 5 μM) | Titers of the bacterium ([2]; 10 μM) | Bc-Nt: mean of the diameter of the lesion (Botrytis cinerea [3]) | Mi: number of nodules per plant (Meloidogyne incognita) | Rs-SI: percentage of mortality (Rhizoctonia solani [4]) | Pp-Nt: percentage of mortality (Phytophthora parasitica) | Pc: number of nodules per plant (Pratylenchus coffeae) | Rs-Nt: percentage of mortality (Rhizoctonia solani [5]) | N-Nt: percentage of mortality (Nocardia sp) | Rs: number of nodules per plant (Radopholus similis) | Bc-At: mean of the diameter of the lesion (Botrytis cinerea [6])
1 | CC1=COC2c3cc(CC(=O)NCC(O)CO)c(=O)oc3C=CC12 (centres unmarked) [IIA, N-(2,3-dihydroxypropyl)-2-{5-methyl-11-oxo-3,10-dioxatricyclo[7.4.0.0^{2,6}]trideca-1(9),4,7,12-tetraen-12-yl}acetamide] | 0.8 mm | 1% | 598 copies per reaction | 14 copies per reaction | 0 copies per reaction | 98 copies per reaction | 9845 copies per reaction | 0.9 mm | 2 | 3% | 1% | 14 | 2% | 1% | 17 | 0.5 mm
2 | O=C(CC1COc2ccc(C(=O)Nn3cccc3)cc2N1)NC(CO)CO (centres unmarked) [VK, 3-{[(1,3-dihydroxypropan-2-yl)carbamoyl]methyl}-N-(1H-pyrrol-1-yl)-3,4-dihydro-2H-1,4-benzoxazine-6-carboxamide] | 1.6 mm | 7% | 435 copies per reaction | 0 copies per reaction | 0 copies per reaction | 45 copies per reaction | 2547 copies per reaction | 2.0 mm | 0 | 0% | 0% | 0 | 0% | 0% | 0 | 1.1 mm
3 | Cc1nc(N2CCN(c3ccccc3)CC2)ncc1C(=O)N1CC2CC(O)C(O)CC2C1 (centres unmarked) [IIID, 2-{[4-methyl-2-(4-phenylpiperazin-1-yl)pyrimidin-5-yl]carbonyl}-octahydro-1H-isoindole-5,6-diol] | 1.6 mm | 8% | 985 copies per reaction | 1 copies per reaction | 0 copies per reaction | 98 copies per reaction | 9653 copies per reaction | 2.0 mm | 0 | 2% | 0% | 18 | 0% | 1% | 0 | 1.1 mm
4 | O=C(c1cnc(N2CCN(C3CCCC3)CC2)nc1)N1CC2CC(O)C(O)CC2C1 (centres unmarked) [IIIG, 2-{[2-(4-cyclopentylpiperazin-1-yl)pyrimidin-5-yl]carbonyl}-octahydro-1H-isoindole-5,6-diol] | 0.8 mm | 7% | 756 copies per reaction | 12 copies per reaction | 5 copies per reaction | 76 copies per reaction | 9654 copies per reaction | 1.5 mm | 0 | 1% | 3% | 0 | 0% | 0% | 3 | 2.4 mm
5 | O=C(CC1COc2ccc(C(=O)NC3CCCC3)cc2N1)NC(CO)CO (centres unmarked) [VG, N-cyclopentyl-3-{[(1,3-dihydroxypropan-2-yl)carbamoyl]methyl}-3,4-dihydro-2H-1,4-benzoxazine-6-carboxamide] | 0.8 mm | 1% | 657 copies per reaction | 8 copies per reaction | 0 copies per reaction | 67 copies per reaction | 3654 copies per reaction | 1.5 mm | 2 | 3% | 1% | 1 | 2% | 1% | 1 | 2.4 mm
6 | Cc1c(CCC(=O)NCC(O)CO)c(=O)oc2cc3occ(-n4cccc4)c3cc12 (centres unmarked) [IN, N-(2,3-dihydroxypropyl)-3-[4-methyl-2-oxo-6-(1H-pyrrol-1-yl)-2H-furo[3,2-g]chromen-3-yl]propanamide] | 1.6 mm | 7% | 524 copies per reaction | 0 copies per reaction | 0 copies per reaction | 54 copies per reaction | 2368 copies per reaction | 2.0 mm | 0 | 1% | 3% | 0 | 0% | 0% | 3 | 1.1 mm
7 | CC(O)C(O)CN1CCC(Oc2ccc(C(=O)N3CCC(C4CCCC4)C3)cc2)CC1 (centres unmarked) [IVH, 1-(4-{4-[(3-cyclopentylpyrrolidin-1-yl)carbonyl]phenoxy}piperidin-1-yl)butane-2,3-diol] | 1.2 mm | 5% | 756 copies per reaction | 0 copies per reaction | 0 copies per reaction | 76 copies per reaction | 1351 copies per reaction | 0.9 mm | 0 | 1% | 0% | 0 | 0% | 0% | 0 | 0.7 mm
8 | O=C(Cc1cc2c(oc1=O)C=CC1C(C3CCCCC3)=COC21)NCC(O)CO (centres unmarked) [IIC, 2-{5-cyclohexyl-11-oxo-3,10-dioxatricyclo[7.4.0.0^{2,6}]trideca-1(9),4,7,12-tetraen-12-yl}-N-(2,3-dihydroxypropyl)acetamide] | 0.8 mm | 3% | 123 copies per reaction | 25 copies per reaction | 2 copies per reaction | 23 copies per reaction | 4562 copies per reaction | 1.5 mm | 4 | 2% | 1% | 2 | 4% | 2% | 18 | 2.4 mm
